We go through eight molecules from US20140155384A1, “COMPOUNDS AND METHODS OF TREATING DIABETES” (Medivation Technologies, Inc., priority 2011, published 2014).

In assay [1] the target is T1, human recombinant adrenergic α2B receptor (Homo sapiens, UniProt P18089).
T1 construct: expressed in transfected cells; host or cells: CHO-K1
T1 sequence (P18089 1-450): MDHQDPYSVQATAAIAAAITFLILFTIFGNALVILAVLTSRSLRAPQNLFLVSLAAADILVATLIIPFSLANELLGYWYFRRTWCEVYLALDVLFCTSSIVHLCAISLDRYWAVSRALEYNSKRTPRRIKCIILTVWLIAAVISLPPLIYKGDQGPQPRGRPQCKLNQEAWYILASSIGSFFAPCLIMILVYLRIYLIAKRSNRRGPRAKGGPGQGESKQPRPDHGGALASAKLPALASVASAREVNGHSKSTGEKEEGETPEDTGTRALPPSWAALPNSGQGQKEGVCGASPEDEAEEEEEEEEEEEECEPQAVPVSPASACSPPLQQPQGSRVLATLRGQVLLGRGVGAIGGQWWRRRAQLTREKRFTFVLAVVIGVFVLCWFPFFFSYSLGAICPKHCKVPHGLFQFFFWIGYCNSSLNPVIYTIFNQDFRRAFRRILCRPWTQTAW
As to the kind of experiment: Radioligand binding, adrenergic α2B receptor ([3H]Rauwolscine). To be noted: CHO-K1 cells; for inhibition at 0.03 µM / inhibition at 0.1 µM: read-out: Percentage inhibition of ligand binding, Adrenergic α2B. The method in brief:
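Percent inhibition of specific [3H]Rauwolscine (2.5 nM) binding, compounds at ≤1 μM, 1% DMSO vehicle, 10 μM prazosin defining nonspecific. Receptor: human α2B expressed in CHO-K1 cells, 60 min incubation at 25 °C in Tris-HCl pH 7.4 buffer (MgCl2, EDTA, BSA); filtered, washed, counted.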

In assay [2] the target is T2, human recombinant adrenergic α2A receptor (Homo sapiens, UniProt P08913).
T2 construct: expressed in transfected cells; host or cells: insect Sf9 cells
T2 sequence (P08913 1-465): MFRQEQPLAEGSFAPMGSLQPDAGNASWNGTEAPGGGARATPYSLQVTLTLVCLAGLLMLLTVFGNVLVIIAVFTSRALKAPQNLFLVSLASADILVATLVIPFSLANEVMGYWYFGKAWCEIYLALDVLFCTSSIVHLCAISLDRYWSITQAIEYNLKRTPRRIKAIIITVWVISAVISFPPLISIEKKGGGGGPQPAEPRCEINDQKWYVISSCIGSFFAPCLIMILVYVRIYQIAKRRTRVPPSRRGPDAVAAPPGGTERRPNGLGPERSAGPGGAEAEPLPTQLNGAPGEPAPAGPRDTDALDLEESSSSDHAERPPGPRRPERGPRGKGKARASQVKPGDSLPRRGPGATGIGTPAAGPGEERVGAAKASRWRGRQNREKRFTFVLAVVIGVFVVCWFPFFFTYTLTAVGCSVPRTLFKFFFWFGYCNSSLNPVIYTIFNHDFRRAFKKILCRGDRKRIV
The experiment in a line: Radioligand binding, adrenergic α2A receptor ([3H]MK-912). To be noted: Sf9 cells, 1 nM [3H]MK-912; for inhibition at 0.03 µM / inhibition at 0.1 µM: read-out: Percentage inhibition of ligand binding, Adrenergic α2A. The method in brief:
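Percent inhibition of specific [3H]MK-912 (1 nM) binding measured by filtration counting, compounds tested at ≤1 μM in 1% DMSO. Receptor: human α2A from Sf9 cells; incubation 60 min, 25 °C, pH 7.4; 10 μM WB-4101 defined nonspecific binding.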

Assay [3] addresses T3, rat adrenergic α1B receptor (Rattus norvegicus, UniProt P15823).
T3 construct: rat adrenergic α1B receptor obtained from Wistar Rat liver; from tissue; host or cells: Wistar rat liver
T3 sequence (P15823 1-515): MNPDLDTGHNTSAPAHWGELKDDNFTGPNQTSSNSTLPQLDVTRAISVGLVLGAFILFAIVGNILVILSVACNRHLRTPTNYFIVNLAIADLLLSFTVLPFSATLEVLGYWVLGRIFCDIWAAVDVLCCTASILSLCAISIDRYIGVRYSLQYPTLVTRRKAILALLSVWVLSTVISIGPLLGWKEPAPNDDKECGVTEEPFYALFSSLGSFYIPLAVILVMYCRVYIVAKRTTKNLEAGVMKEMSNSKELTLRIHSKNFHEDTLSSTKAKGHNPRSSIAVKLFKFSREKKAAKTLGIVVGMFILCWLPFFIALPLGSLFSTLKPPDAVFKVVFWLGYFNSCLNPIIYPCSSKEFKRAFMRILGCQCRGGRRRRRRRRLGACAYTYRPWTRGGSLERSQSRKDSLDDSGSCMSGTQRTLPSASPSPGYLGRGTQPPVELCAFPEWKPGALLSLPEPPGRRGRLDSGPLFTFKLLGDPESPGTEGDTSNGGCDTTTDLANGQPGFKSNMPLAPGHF
As to the kind of experiment: Radioligand binding, adrenergic α1B receptor ([3H]Prazosin). To be noted: Wistar rat liver. A digest of the protocol: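 Wistar rat liver α1B receptor preparation incubated with 0.25 nM [3H]prazosin and compound for 60 min at 25° C in 50 mM Tris-HCl pH 7.4, 0.5 mM EDTA; nonspecific binding defined with 10 μM phentolamine.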

The mark [4] stands for this setting: 0.1 μM compound, read-out: Percentage inhibition of ligand binding, Adrenergic α1B.

One may read the inhibition as the relative decrease from the control value, in per cent. Consider `COc1ccc(-c2cscc2-n2c3c(c4cc(C)ccc42)CN(C)CC3)cc1` [Compound 37], for which the inhibition at 0.03 µM was found to be 104% in assay [1] (0.03 μM compound) and 81% in assay [2] (0.03 μM compound). In addition, the “Percentage inhibition of ligand binding, Adrenergic α2B” value (from here on “Percentage inhibition … Adrenergic α2B”) in assay [1] (0.1 μM compound) stood at 104%. The inhibition at 0.1 µM in assay [1] (0.1 μM compound) was found to be 96%; in assay [2] (0.1 μM compound) it was 88%; in assay [3] (setting [4]), 77%.

Take `Cc1csc(-c2cscc2-n2c3c(c4cc(C)ccc42)CN(C)CC3)c1` [Compound 50]: the inhibition at 0.03 µM in assay [1] (0.03 μM compound) turned out to be 97%; in assay [2] (0.03 μM compound), 82%. The figures for the inhibition at 0.1 µM in assay [1] (0.1 μM compound), in assay [2] (0.1 μM compound) and in assay [3] (setting [4]) were 103%, 88% and 42%, respectively.

Take `Cc1ccc2c(c1)c1c(n2-c2cscc2-c2ccc(S(C)(=O)=O)cc2)CCN(C)C1` [Compound No. 76]: the inhibition at 0.03 µM was 89% in assay [1] (0.03 μM compound) and 44% in assay [2] (0.03 μM compound). Also, the “Percentage inhibition … Adrenergic α2B” value in assay [1] (0.1 μM compound) stood at 100%. Further, the inhibition at 0.1 µM in assay [1] (0.1 μM compound) is 94%; in assay [3] (setting [4]), 68%. Moreover, in assay [2] (0.1 μM compound), the “Percentage inhibition of ligand binding, Adrenergic α2A” value is listed as 68%.

Take `Cc1ccc2c(c1)c1c(n2-c2cscc2-c2ccc(C)s2)CCN(C)C1` [Compound No. 79]: the inhibition at 0.03 µM in assay [1] (0.03 μM compound) is 102%; in assay [2] (0.03 μM compound) it was 82%. Moreover, the inhibition at 0.1 µM in assay [1] (0.1 μM compound) was 104%; in assay [2] (0.1 μM compound) it was 90%; in assay [3] (setting [4]) it was 51%.

On to `Cc1ccc2c(c1)c1c(n2-c2ccccc2-c2cccn2C)CCN(C)C1` [Compound No. 100, 2,8-dimethyl-5-(2-(1-methyl-1H-pyrrol-2-yl)phenyl)-2,3,4,5-tetrahydro-1H-pyrido[4,3-b]indole], for which the values for the inhibition at 0.03 µM in assay [1] (0.03 μM compound) and in assay [2] (0.03 μM compound) were 103% and 74%, respectively. In assay [1] (0.1 μM compound), the “Percentage inhibition … Adrenergic α2B” value came out at 109%. The results for the inhibition at 0.1 µM in assay [1] (0.1 μM compound), in assay [2] (0.1 μM compound) and in assay [3] (setting [4]) were 99%, 84% and 79%, respectively.

Turning to `Cc1ccc2c(c1)c1c(n2-c2cscc2-c2ccc3c(ccn3C)c2)CCN(C)C1` [Compound 33], the “Percentage inhibition … Adrenergic α2B” value in assay [1] (0.03 μM compound) came out at 102%. Further, the inhibition at 0.03 µM amounted to 100% in assay [1] (0.03 μM compound); 87% in assay [2] (0.03 μM compound); 46% in assay [3] (0.03 μM compound, read-out: Percentage inhibition of ligand binding, Adrenergic α1B). Also, the inhibition at 0.1 µM in assay [1] (0.1 μM compound) is 95%; in assay [2] (0.1 μM compound), 92%. In addition, the “Percentage inhibition of ligand binding, Adrenergic α2A” value in assay [2] (0.03 μM compound) and in assay [2] (0.1 μM compound) was 96% in each case. The “Percentage inhibition of ligand binding, Adrenergic α1B” value in assay [3] (0.1 μM compound) came out at 73%.

`Cc1ccc2c(c1)c1c(n2-c2cscc2-c2ccc3cnccc3c2)CCN(C)C1` [Compound No. 68]: the values for the inhibition at 0.03 µM in assay [1] (0.03 μM compound) and in assay [2] (0.03 μM compound) were 71% and 76%, respectively. Also, the “Percentage inhibition … Adrenergic α2B” value in assay [1] (0.1 μM compound) is 93%. Further, the figures for the inhibition at 0.1 µM in assay [1] (0.1 μM compound), in assay [2] (0.1 μM compound) and in assay [3] (setting [4]) were 86%, 86% and 61%, respectively.

As to `Cc1ccc2c(c1)c1c(n2-c2ccccc2-c2ccc3c(ccn3C)c2)CCN(C)C1` [Compound No. 85, 2,8-dimethyl-5-(2-(1-methyl-1H-indol-5-yl)phenyl)-2,3,4,5-tetrahydro-1H-pyrido[4,3-b]indole], the values for the inhibition at 0.03 µM in assay [1] (0.03 μM compound) and in assay [2] (0.03 μM compound) were 89% and 80%, respectively. In addition, the “Percentage inhibition … Adrenergic α2B” value in assay [1] (0.1 μM compound) is listed as 102%. The inhibition at 0.1 µM stood at 98% in assay [1] (0.1 μM compound), 89% in assay [2] (0.1 μM compound) and 36% in assay [3] (setting [4]).
